According to ChEMBL document CHEMBL5257024, “Synthesis of α,β-Unsaturated Carbonyl-Based Compounds, Oxime and Oxime Ether Analogs as Potential Anticancer Agents for Overcoming Cancer Multidrug Resistance by Modulation of Efflux Pumps in Tumor Cells” (J Med Chem, 2016):
The source made the active and inactive calls. The rule behind the calls is not given here.

Columns and labels:
L5178Y [1] = experiment: Reversal of multidrug resistance in mouse L5178Y cells transfected with human MDR1 assessed as reversal of rhodamine 123 accumulation at 5 ug/ml incubated for 30 mins by flow cytometry; assay type: functional, cell-based; settings: dose 5.0 µg/ml
MIA PaCa-2 = experiment: Antiproliferative activity against human MIA PaCa-2 cells assessed as inhibition of cell growth incubated for 48 hrs by propidium iodide staining based fluorometer assay; assay type: functional; settings: MIA PaCa-2, 48 h
[2] = target: Epidermal growth factor receptor (Homo sapiens, UniProt P00533); experiment: Inhibition of recombinant 6His-tagged EGFR cytoplasmic domain (645 to 1186 residues) (unknown origin) autophosphorylation expressed in baculovirus infected Sf9 insect cells preincubated for 10 mins followed by ATP and MgCl2 addition measured after 60 mins by DELFIA/time-resolved fluorometric analysis
Chain of Epidermal growth factor receptor (P00533 whole entry, the tested form may be a part): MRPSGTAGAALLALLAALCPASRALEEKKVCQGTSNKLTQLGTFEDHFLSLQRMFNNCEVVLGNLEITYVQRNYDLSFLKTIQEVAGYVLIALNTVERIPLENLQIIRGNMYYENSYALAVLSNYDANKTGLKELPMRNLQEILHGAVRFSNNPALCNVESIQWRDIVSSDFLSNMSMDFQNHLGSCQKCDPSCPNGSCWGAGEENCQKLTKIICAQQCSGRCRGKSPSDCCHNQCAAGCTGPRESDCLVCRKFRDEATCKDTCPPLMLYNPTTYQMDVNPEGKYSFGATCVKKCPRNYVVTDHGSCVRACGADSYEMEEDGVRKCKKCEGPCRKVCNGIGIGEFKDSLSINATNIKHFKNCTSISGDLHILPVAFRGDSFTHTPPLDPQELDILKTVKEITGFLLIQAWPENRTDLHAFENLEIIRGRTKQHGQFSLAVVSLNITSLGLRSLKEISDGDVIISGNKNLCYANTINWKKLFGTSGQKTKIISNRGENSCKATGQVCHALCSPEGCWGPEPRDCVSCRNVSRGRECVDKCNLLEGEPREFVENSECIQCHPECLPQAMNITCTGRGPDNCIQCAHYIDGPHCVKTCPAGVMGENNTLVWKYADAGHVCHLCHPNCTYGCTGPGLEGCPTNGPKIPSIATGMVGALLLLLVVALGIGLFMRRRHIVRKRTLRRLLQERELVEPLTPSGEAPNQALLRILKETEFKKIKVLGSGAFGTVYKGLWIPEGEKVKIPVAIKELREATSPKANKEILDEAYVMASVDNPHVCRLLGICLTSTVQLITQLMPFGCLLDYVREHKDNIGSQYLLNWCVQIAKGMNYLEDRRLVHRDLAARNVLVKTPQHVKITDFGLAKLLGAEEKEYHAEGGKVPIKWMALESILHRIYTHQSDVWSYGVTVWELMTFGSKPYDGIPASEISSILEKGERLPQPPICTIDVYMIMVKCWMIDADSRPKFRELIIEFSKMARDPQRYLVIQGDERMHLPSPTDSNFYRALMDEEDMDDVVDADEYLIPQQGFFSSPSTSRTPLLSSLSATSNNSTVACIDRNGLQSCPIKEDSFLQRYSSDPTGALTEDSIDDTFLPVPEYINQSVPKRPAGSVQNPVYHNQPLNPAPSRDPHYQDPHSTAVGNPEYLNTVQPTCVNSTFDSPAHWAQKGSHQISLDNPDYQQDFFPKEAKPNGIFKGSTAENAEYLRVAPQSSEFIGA

HT-29 = experiment: cells; settings: Homo sapiens, HT-29, 48 h
Description: Antiproliferative activity against human HT-29 cells assessed as inhibition of cell growth incubated for 48 hrs by propidium iodide staining based fluorometer assay

PC-3 = experiment: cells; settings: Homo sapiens, PC-3, 48 h
Description: Antiproliferative activity against human PC-3 cells assessed as inhibition of cell growth incubated for 48 hrs by propidium iodide staining based fluorometer assay

[3] = Toxicity in mouse L5178Y cells transfected with human MDR1 at 50 ug/ml after short period of incubation by tryptan blue assay; assay type: cell-based; settings: dose 50 µg/ml
[4] = Cytotoxicity against human MCF-10A cells assessed as cell viability incubated for 96 hrs by MTT assay; assay type: toxicity, cell-based; set-up: concentration or dose not given beside the values; settings: read-out: Activity
[5] = Inhibition of full length mouse GST-tagged BRAF V600E mutant preincubated for 60 mins followed by addition of N-terminal His-tagged full length human MEK1 incubated for 25 mins in presence of ATP by ELISA assay
MCF7 = experiment: Antiproliferative activity against human MCF7 cells assessed as inhibition of cell growth incubated for 48 hrs by propidium iodide staining based fluorometer assay; assay type: functional; settings: MCF7, 48 h
Sus scrofa = organism: Sus scrofa; experiment: Induction of pig brain microtubule stabilization at 25 uM measured after 15 mins by fluorescence based turbidimetry; assay type: tissue-based
PANC-1 = experiment: cells; settings: Homo sapiens, PANC-1, 48 h
Description: Antiproliferative activity against human PANC-1 cells assessed as inhibition of cell growth incubated for 48 hrs by propidium iodide staining based fluorometer assay

L5178Y [6] = experiment: Reversal of multidrug resistance in mouse L5178Y cells transfected with human MDR1 assessed as reversal of rhodamine 123 accumulation at 50 ug/ml incubated for 30 mins by flow cytometry; assay type: functional, cell-based; settings: dose 50.0 µg/ml
NCI-H460 = experiment: cells; settings: Homo sapiens, NCI-H460, 48 h
Description: Antiproliferative activity against human NCI-H460 cells assessed as inhibition of cell growth incubated for 48 hrs by propidium iodide staining based fluorometer assay

Tubulin (Sus scrofa) = Tubulin (Sus scrofa) (UniProt P02554+P02550); experiment: Inhibition of pig brain tubulin polymerization at 25 uM measured after 15 mins by fluorescence based turbidimetry; assay type: tissue-based
Chain of Tubulin (Sus scrofa) (P02550 whole entry, looked up): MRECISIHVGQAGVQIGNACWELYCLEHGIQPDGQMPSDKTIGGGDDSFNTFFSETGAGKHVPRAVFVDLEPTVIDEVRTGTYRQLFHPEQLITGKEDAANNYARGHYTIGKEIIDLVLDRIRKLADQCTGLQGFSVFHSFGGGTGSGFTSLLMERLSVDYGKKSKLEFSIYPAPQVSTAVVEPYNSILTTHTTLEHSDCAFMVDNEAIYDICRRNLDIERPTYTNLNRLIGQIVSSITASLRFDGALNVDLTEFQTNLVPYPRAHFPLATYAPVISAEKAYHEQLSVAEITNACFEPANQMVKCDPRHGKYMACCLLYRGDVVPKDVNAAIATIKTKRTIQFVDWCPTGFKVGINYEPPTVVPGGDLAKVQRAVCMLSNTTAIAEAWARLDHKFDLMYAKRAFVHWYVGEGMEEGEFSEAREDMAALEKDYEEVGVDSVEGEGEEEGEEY
Chain of Tubulin (Sus scrofa) (P02554 whole entry, looked up): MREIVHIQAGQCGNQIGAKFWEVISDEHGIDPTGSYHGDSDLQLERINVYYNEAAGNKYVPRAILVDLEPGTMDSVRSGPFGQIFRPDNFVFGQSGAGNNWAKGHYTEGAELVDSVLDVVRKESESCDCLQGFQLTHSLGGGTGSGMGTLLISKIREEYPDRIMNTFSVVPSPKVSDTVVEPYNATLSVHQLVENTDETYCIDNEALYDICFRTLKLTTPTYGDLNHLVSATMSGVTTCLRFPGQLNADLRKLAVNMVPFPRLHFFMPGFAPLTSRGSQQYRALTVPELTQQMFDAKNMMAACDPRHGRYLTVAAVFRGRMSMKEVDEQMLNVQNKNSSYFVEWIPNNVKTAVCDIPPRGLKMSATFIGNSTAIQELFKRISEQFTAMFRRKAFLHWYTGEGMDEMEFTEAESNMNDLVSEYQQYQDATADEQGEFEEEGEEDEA

A549 = experiment: Antiproliferative activity against human A549 cells assessed as inhibition of cell growth incubated for 48 hrs by propidium iodide staining based fluorometer assay; assay type: functional; settings: A549, 48 h

IC50 (MIA PaCa-2)	IC50 [2]	IC50 (HT-29)	IC50 (PC-3)	IC50 [5]	IC50 (MCF7)	IC50 (PANC-1)	IC50 (NCI-H460)	inhibition (Tubulin (Sus scrofa))	IC50 (A549)	SMILES	Activity (L5178Y [1])	Activity [3]	viability at 96 h [4]	Activity (Sus scrofa)	Activity (L5178Y [6])
0.6 µM	4.2 µM	0.6 µM	0.7 µM	1.8 µM	0.5 µM	0.7 µM	0.6 µM	Active	0.4 µM	COc1ccc(OC)c2c1CCC(=C\c1cc(OC)c(OC)c(OC)c1Br)/C2=N\O	inactive	Non-Toxic	89%	inactive	Active
1.2 µM	2.1 µM	1.7 µM	1.4 µM	1.9 µM	0.8 µM	1 µM	1.1 µM	Active	1.2 µM	COc1ccc2c(c1)CCC(=C\c1cc(OC)c(OC)c(OC)c1Br)/C2=N\O	inactive	Non-Toxic	92%	inactive	Active
1.2 µM	4.6 µM	1.1 µM	2.3 µM	1.7 µM	1.4 µM	1.5 µM	1.3 µM	Active	2 µM	COc1cc(/C=C2\CCc3c(O)cccc3\C2=N\O)c(Br)c(OC)c1OC	inactive	Non-Toxic	90%	inactive	Active
0.02 µM	1.9 µM	0.03 µM	0.02 µM	1 µM	0.09 µM	0.02 µM	0.04 µM	Active	0.02 µM	COc1cc(/C=C2\CCc3ccc([N+](=O)[O-])cc3\C2=N\O)c(Br)c(OC)c1OC	inactive	Non-Toxic	96%	inactive	Active
4.9 µM		4.5 µM	4.7 µM		4.1 µM	4.2 µM	4.1 µM		4.1 µM	CCN(CC)CCON=C1/C(=C/c2cc(OC)c(OC)c(OC)c2Br)CC(C)C/C1=C\c1cc(OC)c(OC)c(OC)c1Br (stereo not drawn)			94%	inactive	
11.8 µM		13.2 µM	12.6 µM		11.9 µM	12.2 µM	15.3 µM		12.9 µM	COc1ccc(/C=C2\CC(C(C)C)C/C(=C\c3ccc(OC)c(OC)c3Cl)C2=O)c(Cl)c1OC (stereo not drawn)			87%		
1.7 µM		1.9 µM	1.6 µM		2.3 µM	1.9 µM	1.8 µM		1.9 µM	COc1ccc(/C=C2\CCc3ccc([N+](=O)[O-])cc3C2=O)c(Cl)c1OC			90%		
7.5 µM		6.7 µM	7.2 µM		8.1 µM	7.2 µM	7.4 µM		7.6 µM	COc1cc(/C=C2\CC(C(C)C)C/C(=C\c3cc(OC)c(OC)c(OC)c3Br)C2=O)c(Br)c(OC)c1OC (stereo not drawn)			89%		
5.2 µM		5.1 µM	5.1 µM		5.6 µM	5.8 µM	5.3 µM		5.8 µM	COc1ccc(/C=C2\COC/C(=C\c3ccc(OC)c(OC)c3Cl)C2=O)c(Cl)c1OC			89%		
4.9 µM		5.1 µM	5.2 µM		4.4 µM	4.2 µM	4.9 µM		4.4 µM	COc1cccc(/C=C2\CCc3c(O)cccc3C2=O)c1Cl			96%		
2.2 µM		1.9 µM	2.2 µM		2.4 µM	2.5 µM	2.1 µM		2.6 µM	COc1ccc(OC)c2c1CC/C(=C\c1cc(OC)c(OC)c(OC)c1Br)C2=O			91%		
2.3 µM		2.7 µM	2 µM		2.6 µM	2.1 µM	2.6 µM		2.9 µM	COc1ccc2c(c1)CC/C(=C\c1ccc(OC)c(OC)c1Cl)C2=O			89%		
7.2 µM		7.2 µM	7.3 µM		7.2 µM	7.5 µM	7.9 µM		7.7 µM	COc1ccc(/C=C2\CC(C)c3ccccc3C2=O)c(Cl)c1OC (stereo not drawn)			99%		
1.9 µM		1.9 µM	2.2 µM		1.8 µM	1.9 µM	1.9 µM		1.6 µM	COc1cc(/C=C2\CCc3c(O)cccc3C2=O)c(Br)c(OC)c1OC			93%		
4 µM		4.4 µM	4.7 µM		5.1 µM	4.5 µM	4.7 µM		4.6 µM	COc1ccc2c(c1)CC/C(=C\c1cccc(OC)c1Cl)C2=O			95%		
7.2 µM		6.1 µM	6.4 µM		6.5 µM	6.9 µM	5.4 µM		8.1 µM	COc1cccc(/C=C2\CCC/C(=C\c3cccc(OC)c3Cl)C2=O)c1Cl			90%		
2.1 µM		2.9 µM	2.2 µM		2.2 µM	2.7 µM	2.9 µM		2.1 µM	CCN(CC)CCO/N=C1\C(=C\c2cc(OC)c(OC)c(OC)c2Br)CCc2c(OC)ccc(OC)c21			95%		
4 µM		4.5 µM	4.4 µM		4.9 µM	4.2 µM	4.6 µM		4.3 µM	CCN(CC)CCO/N=C1\C(=C\c2cc(OC)c(OC)c(OC)c2Br)CCc2ccc([N+](=O)[O-])cc21			97%		
11.9 µM		12 µM	14.6 µM		12.8 µM	12.2 µM	12.3 µM		11.1 µM	COc1cc(/C=C2\CN(Cc3ccccc3)C/C(=C\c3cc(OC)c(OC)c(OC)c3Br)C2=O)c(Br)c(OC)c1OC			91%		
1.5 µM		1.4 µM	1.4 µM		1.4 µM	1.2 µM	1.3 µM		1.3 µM	COc1cc(/C=C2\CCc3ccc([N+](=O)[O-])cc3C2=O)c(Br)c(OC)c1OC			88%		
6.6 µM		7 µM	6.4 µM		6.6 µM	6.9 µM	7.2 µM		7.1 µM	CCN(CC)CCO/N=C1\C(=C\c2ccc(OC)c(OC)c2Cl)CCc2ccc([N+](=O)[O-])cc21			94%		
2.9 µM		3.4 µM	3.9 µM		2.8 µM	3.3 µM	4.2 µM		3.1 µM	COc1cccc(/C=C2\CC(C)C/C(=C\c3cccc(OC)c3Cl)C2=O)c1Cl (stereo not drawn)			93%		
16.7 µM		12.1 µM	14.1 µM		15.2 µM	14.5 µM	13.9 µM		13.4 µM	COc1cccc(/C=C2\CC(C(C)C)C/C(=C\c3cccc(OC)c3Cl)C2=O)c1Cl (stereo not drawn)			93%		
8.7 µM		8.4 µM	8.4 µM		9 µM	8.5 µM	9 µM		6.4 µM	COc1cccc(/C=C2\CCc3c(OC)cccc3C2=O)c1Cl			93%		
4.6 µM		4.4 µM	4.9 µM		4.4 µM	4.2 µM	4 µM		4 µM	COc1cccc(/C=C2\CN(C)C/C(=C\c3cccc(OC)c3Cl)C2=O)c1Cl			91%		
7.7 µM		7.4 µM	7.6 µM		8.4 µM	7.5 µM	7.3 µM		7.3 µM	COc1cccc(/C=C2\CNC/C(=C\c3cccc(OC)c3Cl)C2=O)c1Cl			94%		
8.7 µM		8.8 µM	8.3 µM		7.3 µM	8.9 µM	7.4 µM		8.4 µM	COc1cccc(/C=C2\COC/C(=C\c3cccc(OC)c3Cl)C2=O)c1Cl			88%		
10.4 µM		9.9 µM	10.2 µM		12.9 µM	10.2 µM	10.7 µM		10.7 µM	COc1cc(/C=C2\CCc3ccc(Cl)cc3C2=O)c(Br)c(OC)c1OC			90%		
